We go through one substance from patent publication US8318681B2, “Utilization of peptides as active ingredients for slimming” (ISP Investments Inc., priority 2006, dated 2012).

Ends that are not written are not given here.

The subject of the test is pre-adipocyte cell line 3T3-L1. The test is described as follows: Activity of the peptides on adipocytes: 3T3-L1 pre-adipocytes differentiated into mature adipocytes, Oil Red staining of lipid vacuoles, microscope observation. It is filed as cell-based. To be noted: mature adipocytes from 3T3-L1, treated with solution containing the peptide. The protocol:
The number and the size of the lipid vacuoles present in the mature adipocytes are evaluated by microscope observation after specific staining with the “Oil Red” stain.
The pre-adipocyte cells 3T3-L1 are seeded in Labteks and maintained until 100% confluence in DMEM 10% SVF culture medium. The cells are treated with the peptide of sequence ID N° (5), representative of the family of peptides per the invention, placed in 1% solution à 1% starting with a solution of 50 ppm. Nontreated controls were prepared in parallel.
Once confluence is achieved, the cells are cultivated in the presence of differentiation inducers (IBMX, dexamethasone and insulin), so as to bring about the final differentiation into mature adipocytes. The differentiated adipocytes are further incubated for 3 hours with the peptide being tested in a concentration of 1%. Nontreated controls were prepared in parallel.
The adipocytes are then fixed for 10 minutes in a 4% formol and NaCl solution, after which the “Oil Red” stain solution (Sigma, O-0625) is applied for 15 minutes. The cells are then rinsed with warm water and mounted on slides, in hydrophilic medium (Aquatex). The observation is done under an optical microscope.

For the substance GLYDNLE [sequence ID N^o (5)], for the setting “versus nontreated controls (voluminous spherical shape)”, the “morphology of mature adipocytes” value is “less rounded”. Besides, for the setting “versus nontreated controls, Oil Red stain”, the “content of intra-adipocyte lipid vesicles” value was “clearly diminished”.
